# Patent US20260374756A1, “HETEROCYCLIC COMPOUNDS AS INHIBITORS OF MONOACYLGLYCEROL LIPASE (MAGL)” (Hoffmann-La Roche Inc., priority 2022, published 2026)
# Biological target: T1, hMAGL (Homo sapiens, UniProt Q99685)
# T1 sequence (Q99685 1-303): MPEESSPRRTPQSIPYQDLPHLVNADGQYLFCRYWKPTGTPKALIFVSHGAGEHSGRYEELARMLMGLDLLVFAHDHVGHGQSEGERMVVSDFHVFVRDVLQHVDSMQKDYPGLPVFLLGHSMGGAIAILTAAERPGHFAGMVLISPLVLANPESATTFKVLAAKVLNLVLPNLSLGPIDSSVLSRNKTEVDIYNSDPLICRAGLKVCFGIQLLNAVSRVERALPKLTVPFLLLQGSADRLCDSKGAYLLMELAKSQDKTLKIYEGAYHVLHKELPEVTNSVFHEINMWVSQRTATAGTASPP
# Assay: 2-AG assay: MAGL inhibition, hydrolysis of 2-arachidonoylglycerol to arachidonic acid followed by mass spectrometry
# Assay type: biochemical
# Outline: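 Read-out is LC-MS/MS of arachidonic acid released from 2-arachidonoylglycerol (8 μM final), normalised to d8-arachidonic acid internal standard after acetonitrile quench. Enzyme […] and compound were pre-mixed 15 min, then reacted 30 min, both at RT, in Tris/EDTA buffer with 0.01% Tween-20 and 2.5% DMSO.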
row,SMILES,IC50
1,"CS(=O)(=O)c1cnn(CC2CC3(C2)CN(C(=O)N2CC4(CC(n5cnc(C6(O)CC6)n5)C4)C2)C3)c1 [Example 313, [6-[3-(1-hydroxycyclopropyl)-1,2,4-triazol-1-yl]-2-azaspiro[3.3]heptan-2-yl]-[6-[(4-mesylpyrazol-1-yl)methyl]-2-azaspiro[3.3]heptan-2-yl]methanone]",165 nM
2,"O=C(N1CC2(CC(n3cnc(C4CC4)n3)C2)C1)N1CC2(CN(Cc3ccn(C(F)(F)F)n3)C2)C1 [Example 117, [6-(3-cyclopropyl-1,2,4-triazol-1-yl)-2-azaspiro[3.3]heptan-2-yl]-[6-[[1-(trifluoromethyl)pyrazol-3-yl]methyl]-2,6-diazaspiro[3.3]heptan-2-yl]methanone]",16 nM
3,"O=C(N1CC2(CCN(Cc3nc(C(F)(F)F)cs3)CC2)C1)N1CC2(CC(n3cnc(C(F)(F)F)n3)C2)C1 [Example 176, [7-[[4-(trifluoromethyl)thiazol-2-yl]methyl]-2,7-diazaspiro[3.5]nonan-2-yl]-[6-[3-(trifluoromethyl)-1,2,4-triazol-1-yl]-2-azaspiro[3.3]heptan-2-yl]methanone]",44.8 nM
4,"O=C(N1CC2(CC(Cc3cc(C(F)F)n[nH]3)C2)C1)N1CC2(CC(c3cc(C4CC4)n[nH]3)C2)C1 [Example 294, [6-(3-cyclopropyl-1H-pyrazol-5-yl)-2-azaspiro[3.3]heptan-2-yl]-[6-[[3-(difluoromethyl)-1H-pyrazol-5-yl]methyl]-2-azaspiro[3.3]heptan-2-yl]methanone]",0.33 nM
5,"O=C(N1CC2(CC(Cn3cnc(C4(C(F)(F)F)CC4)n3)C2)C1)N1CC2(CC(c3cc(C4CC4)n[nH]3)C2)C1 [Example 74, [6-(3-cyclopropyl-1H-pyrazol-5-yl)-2-azaspiro[3.3]heptan-2-yl]-[6-[[3-[1-(trifluoromethyl)cyclopropyl]-1,2,4-triazol-1-yl]methyl]-2-azaspiro[3.3]heptan-2-yl]methanone]",0.42 nM
6,N#Cc1cnn(CC2CC3(C2)CN(C(=O)N2CC4(CC(c5cc(C6CC6)n[nH]5)C4)C2)C3)c1 [Example 37],4.3 nM

# Continued, values first:
row,IC50,SMILES
1,31.9 nM,"O=C(N1CC2(CC(n3cnc(C(F)(F)F)n3)C2)C1)N1CC2(CN(Cc3conc3C(F)(F)F)C2)C1 [Example 218, [6-[[3-(trifluoromethyl)isoxazol-4-yl]methyl]-2,6-diazaspiro[3.3]heptan-2-yl]-[6-[3-(trifluoromethyl)-1,2,4-triazol-1-yl]-2-azaspiro[3.3]heptan-2-yl]methanone]"
2,132 nM,"CC(C)(C)n1nccc1CN1CC2(C1)CN(C(=O)N1CC3(CC(n4cnc(C(F)(F)F)n4)C3)C1)C2 [Example 275, [6-[(2-tert-butylpyrazol-3-yl)methyl]-2,6-diazaspiro[3.3]heptan-2-yl]-[6-[3-(trifluoromethyl)-1,2,4-triazol-1-yl]-2-azaspiro[3.3]heptan-2-yl]methanone]"
3,176 nM,"O=C(N1CC2(CC(n3cnc(C(F)(F)F)n3)C2)C1)N1CC2(CN(Cc3nccn3CC(F)(F)F)C2)C1 [Example 233, [6-[[1-(2,2,2-trifluoroethyl)imidazol-2-yl]methyl]-2,6-diazaspiro[3.3]heptan-2-yl]-[6-[3-(trifluoromethyl)-1,2,4-triazol-1-yl]-2-azaspiro[3.3]heptan-2-yl]methanone]"
4,158 nM,"O=C(N1CC2(CC(n3cnc(C(F)(F)F)n3)C2)C1)N1CC2(CN(Cc3nc[nH]c3C(F)(F)F)C2)C1 [Example 237, [6-[[5-(trifluoromethyl)-1H-imidazol-4-yl]methyl]-2,6-diazaspiro[3.3]heptan-2-yl]-[6-[3-(trifluoromethyl)-1,2,4-triazol-1-yl]-2-azaspiro[3.3]heptan-2-yl]methanone]"
5,10.6 nM,"CC(C)(C)c1ncc(CN2CC3(C2)CN(C(=O)N2CC4(CC(n5cnc(C(F)(F)F)n5)C4)C2)C3)s1 [Example 56, [6-[(2-tert-butylthiazol-5-yl)methyl]-2,6-diazaspiro[3.3]heptan-2-yl]-[6-[3-(trifluoromethyl)-1,2,4-triazol-1-yl]-2-azaspiro[3.3]heptan-2-yl]methanone]"
